Results from US10709714B2 (CL BioSciences LLC, priority 2013, dated 2020).
Where two headings read alike, the source gives them in different places. One block for each molecule: values may come before it. Ends that are not written are not given here.

What was measured:
isolated G cells [1] = assay: Gastrin release from isolated G cells; format: cell-based; conditions: for EC50: read-out: EC50, stimulation of gastrin release
Procedure: (§1) The effect of the ovarian hormone, estrogen on G cell function was evaluated.

isolated G cells [2] = assay: cAMP production in isolated G cells; format: cell-based
Procedure: as §1

[3] = system: MAPK phosphorylation in G cells; assay: MAPK phosphorylation in G cells; format: cell-based; conditions: preincubation
PTH chief cells = conditions: read-out: EC50, stimulation of PTH release; human PTH chief cells
[4] = biological target: gastrin/CCK2 receptor (human, on isolated PTH chief cells and on the MTC-SK cell line) (human) (UniProt P32239); assay: cell-based or functional assay
isolated rodent G cells = conditions: for IC50: read-out: OCTR (IC50); for EC50: read-out: Calcium (EC50)
Excerpt: This animal has been extensively studied as a model of gastric acid pathophysiology relevant to long-term pharmacological inhibition of acid secretion (low acid state pathobiology).

G cells = assay: Calcium influx in G cells (flow cytometry, FITC shift); format: cell-based; conditions: CaCl2 4 mM
[5] = 0.02-4 U/min, young anesthetized pigs; cited from earlier work
isolated G cells [6] = assay: Gastrin release from isolated G cells; format: cell-based; conditions: for effect on CaCl2-mediated gastrin release: nifedipine 1 μm (preincubation 10 mins), H-89 10 μM, PD98059 0.1 μM, wortmannin 1 nM
[7] = Plasma gastrin in Mastomys under irreversible gastric acid suppression; format: in vivo; conditions: Mastomys 6-9 months, treated 30 days, Loxtidine 1 mg/L in drinking water
Excerpt: This animal has been extensively studied as a model of gastric acid pathophysiology relevant to long-term pharmacological inhibition of acid secretion (low acid state pathobiology). […] Such treatment therefore results in an achlorhydric and hypergastrinemic animal model.

Mastomys femur = assay: Bone histomorphometry (TRAP-positive osteoclasts) in loxtidine-treated Mastomys; format: in vivo
Procedure: In one aspect, the changes in loxtidine-treated animals reflect loss of bone mineralization and increased resorption—features consistent with osteoporotic phenotypes. BM=bone mineralization, RC=resorption cavity.
Animals (females) 4-6 months old were treated with Loxtidine for 60 or 120 days. Age- and sex-matched untreated animals provided a control group.
Thereafter, bone histomorphometry was examined. […] Evidence of osteoid seams and osteomalacia was also noted (FIG. 21).

CCK2 receptor = biological target: T1, CCK2 receptor (Homo sapiens, UniProt P32239); assay: Gastrin-stimulated cAMP production and calcitonin release/transcription in MTC-SK cells; format: cell-based; conditions: H-89 10 μM preincubation
T1 construct: Gastrin stimulated both cAMP as well as calcitonin release from the well-differentiated human MTC cell line, MTC-SK; endogenous in cells; host or cells: MTC-SK (human medullary thyroid carcinoma cell line)
T1 sequence (P32239 1-447): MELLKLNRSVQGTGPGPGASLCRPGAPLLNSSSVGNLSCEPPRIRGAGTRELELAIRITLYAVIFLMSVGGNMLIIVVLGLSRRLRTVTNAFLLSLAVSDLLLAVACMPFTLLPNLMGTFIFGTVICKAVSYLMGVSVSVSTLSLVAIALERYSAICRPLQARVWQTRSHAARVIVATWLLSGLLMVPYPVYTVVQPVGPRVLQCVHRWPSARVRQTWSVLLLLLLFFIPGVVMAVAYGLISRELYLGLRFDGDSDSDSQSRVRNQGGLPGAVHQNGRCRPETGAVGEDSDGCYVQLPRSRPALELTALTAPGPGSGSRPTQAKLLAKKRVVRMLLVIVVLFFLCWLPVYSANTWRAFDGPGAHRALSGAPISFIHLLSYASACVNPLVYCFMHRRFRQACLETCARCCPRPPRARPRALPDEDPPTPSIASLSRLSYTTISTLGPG

[8] = biological target: T2, calcitonin receptor on G cells; assay: cell-based or functional assay
T2 sequence (P30988 whole entry, species assumed, looked up): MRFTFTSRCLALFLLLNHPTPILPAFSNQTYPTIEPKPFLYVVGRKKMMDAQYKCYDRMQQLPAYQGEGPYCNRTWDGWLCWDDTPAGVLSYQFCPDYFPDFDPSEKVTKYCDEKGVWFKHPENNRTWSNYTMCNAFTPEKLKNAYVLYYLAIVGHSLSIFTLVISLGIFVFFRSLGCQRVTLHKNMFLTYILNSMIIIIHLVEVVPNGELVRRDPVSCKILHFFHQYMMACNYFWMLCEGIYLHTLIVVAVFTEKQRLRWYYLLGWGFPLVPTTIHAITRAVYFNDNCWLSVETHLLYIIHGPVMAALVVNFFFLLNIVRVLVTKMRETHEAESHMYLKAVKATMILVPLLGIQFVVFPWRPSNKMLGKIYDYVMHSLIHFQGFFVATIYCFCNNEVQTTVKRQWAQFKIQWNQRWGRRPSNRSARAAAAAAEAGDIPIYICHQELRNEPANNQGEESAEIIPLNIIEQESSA

PTH receptor on G cells = assay: cell-based or functional assay
[9] = H-89 10 μM preincubation 10 mins

Molecule: CSCC[C@H](NC(=O)[C@H](Cc1c[nH]c2ccccc12)NC(=O)CNC(=O)[C@H](Cc1ccc(O)cc1)NC(=O)[C@H](C)NC(=O)[C@H](CCC(=O)O)NC(=O)[C@H](CCC(=O)O)NC(=O)[C@H](CCC(=O)O)NC(=O)[C@H](CCC(=O)O)NC(=O)[C@H](CCC(=O)O)NC(=O)[C@H](CC(C)C)NC(=O)[C@H](Cc1c[nH]c2ccccc12)NC(=O)[C@@H]1CCCN1C(=O)CNC(=O)[C@@H]1CCC(=O)N1)C(=O)N[C@@H](CC(=O)O)C(=O)N[C@@H](Cc1ccccc1)C(N)=O [Gastrin]
EC50 (PTH chief cells): 0.00042 µM

Molecule: C[C@@H](O)[C@@H]1NC(=O)[C@H](CCCCN)NC(=O)[C@@H](Cc2c[nH]c3ccccc23)NC(=O)[C@H](Cc2ccccc2)NC(=O)[C@@H](NC(=O)[C@H](N)Cc2ccccc2)CSSC[C@@H](C(=O)N[C@H](CO)[C@@H](C)O)NC1=O [OCTR, octreotide]
increase of IC50 in low acid versus normal G cells (isolated rodent G cells): ~5 fold | IC50 (isolated rodent G cells; Low acid G-cells): 140 pM | IC50 (isolated rodent G cells; Normal G-cells): 28 pM

Molecule: synthetic human 1-34 PTH: synthetic human 1-34 parathyroid hormone used in cited pig studies (SVSEIQLMHNLGKHLNSMERVEWLRKKLQDVHNF; Parathyroid hormone; UniProt P01270 32-65, looked up, fragment)
increase in gastrin release [5]: approximately 10 fold

Molecule: COc1cccc(-c2cc(=O)c3ccccc3o2)c1N [PD98059]
effect on CaCl2-mediated gastrin release (isolated G cells [6]): could not be inhibited

Molecule: Cn1nc(CO)nc1NCCCOc1cccc(CN2CCCCC2)c1 [Loxtidine]
plasma gastrin levels [7]: 104 ± 23 pg/mL | numbers of TRAP-positive osteoclasts (Mastomys femur; 8-week treated Mastomys): 15±6 | numbers of TRAP-positive osteoclasts (Mastomys femur; 16-week treated Mastomys): 16±4.5

B1: native bovine PTH: native bovine parathyroid hormone used in cited pig studies (peptide, UniProt P01268 32-115, looked up)
Parathyroid hormone: AVSEIQFMHNLGKHLSSMERVEWLRKKLQDVHNFVALGASIAYRDGSSQRPRKKEDNVLVESHQKSLGEADKADVDVLIKAKPQ
modifications: Parathyroid hormone
notes: native bovine parathyroid hormone used in cited pig studies
increase in gastrin release [5]: approximately 10 fold

Molecule: CGNLSTCMLGTYTQDFNKFHTFPQTAIGVGAP (ligand, UniProt P01258 85-116, looked up, species assumed, ends and bridges not checked; cysteine pairing not given here) [calcitonin]
inhibition of cAMP production in isolated G cells [8]: 3.8 nM | inhibition of gastrin release from isolated G cells [8]: 1.9 nM

B2: PTH (parathyroid hormone) (ligand, UniProt P01270 32-115, looked up, species assumed)
Parathyroid hormone: SVSEIQLMHNLGKHLNSMERVEWLRKKLQDVHNFVALGAPLAPRDAGSQRPRKKEDNVLVESHEKSLGEADKADVNVLTKAKSQ
modifications: Parathyroid hormone
cAMP production in isolated G cells (PTH receptor on G cells): 4 nM | gastrin release from isolated G cells (PTH receptor on G cells): 60 nM

Continued, in another order:

IC50 (isolated G cells [1]; read-out: IC50, inhibition of gastrin release): 4.6 pM | IC50 (isolated G cells [2]; read-out: IC50, inhibition of cAMP synthesis): 0.0011 nM
Molecule: C[C@]12CC[C@@H]3c4ccc(O)cc4CC[C@H]3[C@@H]1CC[C@@H]2O [17β-estradiol]
inhibition of gastrin release (isolated G cells [1]): ~20% | inhibition of cAMP production (isolated G cells [2]): −15% | inhibition of MAPK phosphorylation [3]: 75%

PTH release from isolated human PTH chief cells [4]: 420 pM | PTH synthesis in isolated human PTH chief cells [4]: 1 nM | cAMP production in MTC-SK cells [4]: 0.67 pM
Molecule: gastrin (ligand)

EC50 (isolated G cells [1]; estimated): 0.06 µM | EC50 (isolated G cells [2]; read-out: E50, stimulation of cAMP production): 0.004 µM
Molecule: PTH: parathyroid hormone
stimulation of gastrin release (isolated G cells [1]; isolated G cells): ~8 fold | stimulation of cAMP production (isolated G cells [2]): 250%

EC50 (isolated G cells [1]; isolated G cells): 4100 µM | EC50 (isolated rodent G cells; Low acid G-cells): 10000 µM
Molecule: [Ca+2].[Cl-].[Cl-] [CaCl2]
stimulation of gastrin release (isolated G cells [1]; isolated G cells): 8 fold | cAMP production during calcium-mediated gastrin secretion (isolated G cells [2]): not associated with cAMP production | calcium influx (FITC shift rightwards) (G cells): > 5 fold | EC50 (isolated rodent G cells; Normal G-cells): 4000 µM

effect on gastrin-stimulated cAMP production (CCK2 receptor): inhibited | effect on gastrin-stimulated calcitonin gene transcription (CCK2 receptor): reversed
Molecule: O=S(=O)(NCCNC/C=C/c1ccc(Br)cc1)c1cccc2cnccc12 [H-89]
effect on PTH-stimulated cAMP production (isolated G cells [2]; [9]): reversed | effect on calcitonin inhibition of gastrin release (isolated G cells [6]; H-89 10 μM preincubation): reversed | effect on PTH-stimulated gastrin release (isolated G cells [6]; [9]): inhibited | effect on CaCl2-mediated gastrin release (isolated G cells [6]): could not be inhibited

IC50 (isolated G cells [2]; read-out: I50, inhibition of cAMP production): 3.8 nM
Molecule: CC(C)C[C@H](NC(=O)[C@H](CCCCN)NC(=O)CNC(=O)[C@H](CC(C)C)NC(=O)[C@@H](NC(=O)[C@@H]1CSSC[C@H](N)C(=O)N[C@@H](CO)C(=O)N[C@@H](CC(N)=O)C(=O)N[C@@H](CC(C)C)C(=O)N[C@@H](CO)C(=O)N[C@@H]([C@@H](C)O)C(=O)N1)C(C)C)C(=O)N[C@@H](CO)C(=O)N[C@@H](CCC(N)=O)C(=O)N[C@@H](CCC(=O)O)C(=O)N[C@@H](CC(C)C)C(=O)N[C@@H](Cc1c[nH]cn1)C(=O)N[C@@H](CCCCN)C(=O)N[C@@H](CC(C)C)C(=O)N[C@@H](CCC(N)=O)C(=O)N[C@H](C(=O)N[C@@H](Cc1ccc(O)cc1)C(=O)N1CCC[C@H]1C(=O)N[C@@H](CCCNC(=N)N)C(=O)N[C@H](C(=O)N[C@@H](CC(N)=O)C(=O)N[C@H](C(=O)NCC(=O)N[C@@H](CO)C(=O)NCC(=O)N[C@H](C(=O)N1CCC[C@H]1C(N)=O)[C@@H](C)O)[C@@H](C)O)[C@@H](C)O)[C@@H](C)O [Calcitonin]
inhibition of gastrin release (isolated G cells [1]): ~20% | inhibition of cAMP production (isolated G cells [2]): 20%
